Source: the kinase profiling compilation of Christmann-Franck et al. (2016)

How the values were obtained:
Assay in all cases: radiometric filter-binding kinase assay, Kinase HotSpot
Settings in all cases: compound 0.5 µM; ATP 10 µM
DMPK (human) = DMPK (human) (UniProt Q09013)
STK16 (human) = STK16 (human) (UniProt O75716)
IKBKB (human) = IKBKB (human) (UniProt O14920)
NEK11 (human) = NEK11 (human) (UniProt Q8NG66)
EPHB3 (human) = EPHB3 (human) (UniProt P54753)
CDK5 CDK5R1 p25 (human) = CDK5 CDK5R1 p25 (human) (UniProt Q00535+Q15078)
CLK1 (human) = CLK1 (human) (UniProt P49759)
STK4 (human) = STK4 (human) (UniProt Q13043)
SRPK3 (human) = SRPK3 (human) (UniProt Q9UPE1)
MAPK11 (human) = MAPK11 (human) (UniProt Q15759)
MYLK2 (human) = MYLK2 (human) (UniProt Q9H1R3)
EPHA7 (human) = EPHA7 (human) (UniProt Q15375)
CDK5 CDK5R1 p35 (human) = CDK5 CDK5R1 p35 (human) (UniProt Q00535+Q15078)
CSNK1G3 (human) = CSNK1G3 (human) (UniProt Q9Y6M4)
ADRBK1 (human) = ADRBK1 (human) (UniProt P25098)
FER (human) = FER (human) (UniProt P16591)
BRSK1 (human) = BRSK1 (human) (UniProt Q8TDC3)
PRKD2 (human) = PRKD2 (human) (UniProt Q9BZL6)
PRKD3 (human) = PRKD3 (human) (UniProt O94806)
PKN2 (human) = PKN2 (human) (UniProt Q16513)
SGK3 (human) = SGK3 (human) (UniProt Q96BR1)
SGK3 (human), sequence (Q96BR1 whole entry, looked up): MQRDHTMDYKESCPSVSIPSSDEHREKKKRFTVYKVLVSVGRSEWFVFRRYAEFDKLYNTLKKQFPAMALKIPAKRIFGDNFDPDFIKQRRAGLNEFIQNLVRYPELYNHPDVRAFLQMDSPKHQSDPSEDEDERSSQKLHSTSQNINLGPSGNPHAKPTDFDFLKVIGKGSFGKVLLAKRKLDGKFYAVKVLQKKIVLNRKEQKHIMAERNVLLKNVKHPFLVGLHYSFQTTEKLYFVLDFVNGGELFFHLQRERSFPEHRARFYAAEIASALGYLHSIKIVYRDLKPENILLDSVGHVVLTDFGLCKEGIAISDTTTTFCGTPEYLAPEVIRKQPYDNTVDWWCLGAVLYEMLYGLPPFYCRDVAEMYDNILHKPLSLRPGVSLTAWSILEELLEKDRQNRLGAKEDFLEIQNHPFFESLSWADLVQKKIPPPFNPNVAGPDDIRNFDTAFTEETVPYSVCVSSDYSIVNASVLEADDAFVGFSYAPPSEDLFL

OXSR1 (human) = OXSR1 (human) (UniProt O95747)
PDGFRB (human) = PDGFRB (human) (UniProt P09619)
PDGFRB (human), sequence (P09619 whole entry, looked up): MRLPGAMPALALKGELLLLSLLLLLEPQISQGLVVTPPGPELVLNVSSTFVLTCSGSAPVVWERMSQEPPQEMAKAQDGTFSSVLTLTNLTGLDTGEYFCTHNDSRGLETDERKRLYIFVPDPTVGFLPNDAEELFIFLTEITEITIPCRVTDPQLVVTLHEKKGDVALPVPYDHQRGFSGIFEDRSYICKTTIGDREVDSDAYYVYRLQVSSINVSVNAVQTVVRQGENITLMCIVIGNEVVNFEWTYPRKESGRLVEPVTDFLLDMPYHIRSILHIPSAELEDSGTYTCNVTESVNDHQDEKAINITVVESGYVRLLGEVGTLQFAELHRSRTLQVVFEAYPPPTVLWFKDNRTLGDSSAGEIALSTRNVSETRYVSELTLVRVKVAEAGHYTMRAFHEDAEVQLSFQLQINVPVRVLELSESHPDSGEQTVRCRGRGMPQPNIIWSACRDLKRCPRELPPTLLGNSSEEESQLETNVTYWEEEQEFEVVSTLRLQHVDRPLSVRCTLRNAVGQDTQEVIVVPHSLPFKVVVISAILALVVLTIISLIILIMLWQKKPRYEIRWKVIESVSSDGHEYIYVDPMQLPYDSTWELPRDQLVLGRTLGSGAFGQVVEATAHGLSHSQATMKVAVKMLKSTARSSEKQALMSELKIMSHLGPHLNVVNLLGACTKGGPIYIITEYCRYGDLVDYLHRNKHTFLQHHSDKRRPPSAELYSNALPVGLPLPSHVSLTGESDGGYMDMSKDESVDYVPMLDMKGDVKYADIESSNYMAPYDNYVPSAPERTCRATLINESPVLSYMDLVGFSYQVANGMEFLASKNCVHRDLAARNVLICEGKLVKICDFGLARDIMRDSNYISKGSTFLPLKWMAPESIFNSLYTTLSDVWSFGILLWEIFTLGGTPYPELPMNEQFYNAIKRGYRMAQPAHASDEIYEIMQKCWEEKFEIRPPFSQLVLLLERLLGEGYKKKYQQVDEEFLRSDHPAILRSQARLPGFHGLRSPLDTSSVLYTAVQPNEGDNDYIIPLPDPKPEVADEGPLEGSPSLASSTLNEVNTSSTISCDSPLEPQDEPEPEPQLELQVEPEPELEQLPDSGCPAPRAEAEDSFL

BMX (human) = BMX (human) (UniProt P51813)
ACVR1 (human) = ACVR1 (human) (UniProt Q04771)
[1] = tested on: MKNK1 (human), Q9BUB5 [T385D; 165-205 del]
MKNK1 (human), Q9BUB5 [T385D; 165-205 del], sequence (Q9BUB5 whole entry, looked up, stated change not applied): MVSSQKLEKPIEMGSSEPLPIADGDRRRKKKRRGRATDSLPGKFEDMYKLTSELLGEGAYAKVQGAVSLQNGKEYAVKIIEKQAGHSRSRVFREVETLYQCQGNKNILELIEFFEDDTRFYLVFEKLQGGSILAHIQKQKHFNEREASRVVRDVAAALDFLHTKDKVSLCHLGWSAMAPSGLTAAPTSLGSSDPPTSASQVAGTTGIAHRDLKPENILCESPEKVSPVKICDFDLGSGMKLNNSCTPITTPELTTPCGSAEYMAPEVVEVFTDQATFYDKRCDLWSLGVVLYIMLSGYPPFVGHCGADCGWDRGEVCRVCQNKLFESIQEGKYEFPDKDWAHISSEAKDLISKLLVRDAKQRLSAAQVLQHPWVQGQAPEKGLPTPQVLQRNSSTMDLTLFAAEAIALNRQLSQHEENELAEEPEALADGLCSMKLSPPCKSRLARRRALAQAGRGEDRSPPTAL

YES1 (human) = YES1 (human) (UniProt P07947)
MAPK1 (human) = MAPK1 (human) (UniProt P28482)
DCLK2 (human) = DCLK2 (human) (UniProt Q8N568)
DYRK1B (human) = DYRK1B (human) (UniProt Q9Y463)
AURKA (human) = AURKA (human) (UniProt O14965)
MET (human) = MET (human) (UniProt P08581)
INSR (human) = INSR (human) (UniProt P06213)
EPHB1 (human) = EPHB1 (human) (UniProt P54762)
NEK3 (human) = NEK3 (human) (UniProt P51956)
HIPK3 (human) = HIPK3 (human) (UniProt Q9H422)
MARK4 (human) = MARK4 (human) (UniProt Q96L34)
ABL2 (human) = ABL2 (human) (UniProt P42684)
ABL2 (human), sequence (P42684 whole entry, looked up): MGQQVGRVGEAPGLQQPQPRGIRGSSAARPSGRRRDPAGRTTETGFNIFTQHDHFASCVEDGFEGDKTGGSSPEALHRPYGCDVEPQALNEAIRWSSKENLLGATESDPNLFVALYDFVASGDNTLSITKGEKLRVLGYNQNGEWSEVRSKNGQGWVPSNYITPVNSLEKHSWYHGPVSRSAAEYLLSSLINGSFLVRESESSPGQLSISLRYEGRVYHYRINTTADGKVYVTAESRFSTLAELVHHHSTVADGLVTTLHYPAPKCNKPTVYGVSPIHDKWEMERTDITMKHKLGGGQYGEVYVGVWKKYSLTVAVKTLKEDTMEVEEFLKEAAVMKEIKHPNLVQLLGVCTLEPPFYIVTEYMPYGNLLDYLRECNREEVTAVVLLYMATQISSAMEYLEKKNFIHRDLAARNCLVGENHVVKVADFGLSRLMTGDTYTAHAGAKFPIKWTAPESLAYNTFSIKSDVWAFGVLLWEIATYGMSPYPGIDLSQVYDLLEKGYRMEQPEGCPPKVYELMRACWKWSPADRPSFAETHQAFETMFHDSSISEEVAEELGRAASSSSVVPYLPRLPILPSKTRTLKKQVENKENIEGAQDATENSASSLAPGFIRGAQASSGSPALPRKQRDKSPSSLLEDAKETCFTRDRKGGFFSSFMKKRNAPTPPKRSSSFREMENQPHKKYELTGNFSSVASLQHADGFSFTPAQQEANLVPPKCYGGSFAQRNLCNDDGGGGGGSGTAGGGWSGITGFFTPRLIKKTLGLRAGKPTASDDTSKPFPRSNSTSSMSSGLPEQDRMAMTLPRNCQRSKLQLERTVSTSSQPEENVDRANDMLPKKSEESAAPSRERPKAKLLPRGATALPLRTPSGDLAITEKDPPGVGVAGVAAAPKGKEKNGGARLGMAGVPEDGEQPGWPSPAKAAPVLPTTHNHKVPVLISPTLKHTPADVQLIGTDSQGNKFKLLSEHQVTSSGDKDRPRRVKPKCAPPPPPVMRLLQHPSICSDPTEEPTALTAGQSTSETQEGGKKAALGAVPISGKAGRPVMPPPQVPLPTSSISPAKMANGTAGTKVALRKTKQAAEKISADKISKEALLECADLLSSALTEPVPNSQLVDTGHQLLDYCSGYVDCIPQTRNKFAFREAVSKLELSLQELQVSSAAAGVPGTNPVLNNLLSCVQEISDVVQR

MAP3K9 (human) = MAP3K9 (human) (UniProt P80192)
CDK9 CCNK (human) = CDK9 CCNK (human) (UniProt O75909+P50750)
SIK2 (human) = SIK2 (human) (UniProt Q9H0K1)
STK17A (human) = STK17A (human) (UniProt Q9UEE5)

IKBKB (human), sequence (O14920 whole entry, looked up): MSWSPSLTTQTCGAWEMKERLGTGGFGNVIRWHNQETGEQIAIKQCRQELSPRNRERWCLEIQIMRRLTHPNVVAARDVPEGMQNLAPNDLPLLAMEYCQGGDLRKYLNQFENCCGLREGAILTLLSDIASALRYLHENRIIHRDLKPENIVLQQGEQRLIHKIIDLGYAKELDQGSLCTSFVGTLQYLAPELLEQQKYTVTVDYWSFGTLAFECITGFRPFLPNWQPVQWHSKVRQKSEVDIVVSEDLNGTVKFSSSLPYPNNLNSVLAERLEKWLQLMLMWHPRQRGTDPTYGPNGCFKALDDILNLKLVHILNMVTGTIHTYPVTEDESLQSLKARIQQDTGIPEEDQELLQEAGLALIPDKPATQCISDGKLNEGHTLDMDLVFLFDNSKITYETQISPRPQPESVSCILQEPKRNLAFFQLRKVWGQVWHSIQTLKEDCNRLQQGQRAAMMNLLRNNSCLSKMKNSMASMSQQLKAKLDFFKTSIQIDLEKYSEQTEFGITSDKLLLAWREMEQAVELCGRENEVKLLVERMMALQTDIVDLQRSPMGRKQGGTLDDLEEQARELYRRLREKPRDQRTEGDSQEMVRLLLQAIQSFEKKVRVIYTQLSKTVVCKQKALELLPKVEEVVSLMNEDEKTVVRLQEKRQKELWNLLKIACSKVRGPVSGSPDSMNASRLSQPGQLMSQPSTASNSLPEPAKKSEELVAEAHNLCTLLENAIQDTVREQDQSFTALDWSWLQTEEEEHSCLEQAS
DMPK (human), sequence (Q09013 whole entry, looked up): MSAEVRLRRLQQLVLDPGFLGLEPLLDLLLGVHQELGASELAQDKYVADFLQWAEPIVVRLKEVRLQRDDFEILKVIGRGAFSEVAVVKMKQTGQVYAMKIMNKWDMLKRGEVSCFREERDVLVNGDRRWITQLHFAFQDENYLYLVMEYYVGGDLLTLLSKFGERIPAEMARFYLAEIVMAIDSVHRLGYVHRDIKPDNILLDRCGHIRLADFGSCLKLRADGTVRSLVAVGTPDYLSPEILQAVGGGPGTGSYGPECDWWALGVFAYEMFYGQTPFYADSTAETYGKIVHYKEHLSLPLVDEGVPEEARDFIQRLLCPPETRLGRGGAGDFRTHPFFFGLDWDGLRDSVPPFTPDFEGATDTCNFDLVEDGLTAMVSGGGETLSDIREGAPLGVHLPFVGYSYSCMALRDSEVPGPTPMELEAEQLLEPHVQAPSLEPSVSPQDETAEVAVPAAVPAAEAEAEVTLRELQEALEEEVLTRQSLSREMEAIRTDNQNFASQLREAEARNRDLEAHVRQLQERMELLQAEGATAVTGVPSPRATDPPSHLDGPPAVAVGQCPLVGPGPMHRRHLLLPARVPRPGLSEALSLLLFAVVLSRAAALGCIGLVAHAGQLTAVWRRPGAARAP
STK16 (human), sequence (O75716 whole entry, looked up): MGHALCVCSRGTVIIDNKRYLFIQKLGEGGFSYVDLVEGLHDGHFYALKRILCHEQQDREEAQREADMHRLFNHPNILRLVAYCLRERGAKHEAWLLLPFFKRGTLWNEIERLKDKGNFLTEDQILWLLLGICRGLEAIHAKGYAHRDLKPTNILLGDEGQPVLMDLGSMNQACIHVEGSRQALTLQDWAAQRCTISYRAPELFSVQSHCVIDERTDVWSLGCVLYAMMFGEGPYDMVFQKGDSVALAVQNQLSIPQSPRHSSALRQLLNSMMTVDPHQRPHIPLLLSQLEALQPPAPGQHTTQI

Question: Which results are given for `CN(C)S(=O)(=O)c1ccc2c(c1)/C(=C/c1cc3c([nH]1)CCCC3)C(=O)N2`?
Answer: residual activity (DMPK (human)): 102%; residual activity (STK16 (human)): 104%; residual activity (IKBKB (human)): 107%; residual activity (NEK11 (human)): 82.5%; residual activity (EPHB3 (human)): 105%; residual activity (CDK5 CDK5R1 p25 (human)): 72.9%; residual activity (CLK1 (human)): 82.6%; residual activity (STK4 (human)): 13.1%; residual activity (SRPK3 (human)): 67.2%; residual activity (MAPK11 (human)): 108%; residual activity (MYLK2 (human)): 97.9%; residual activity (EPHA7 (human)): 91.1%; residual activity (CDK5 CDK5R1 p35 (human)): 76.9%; residual activity (CSNK1G3 (human)): 101%; residual activity (ADRBK1 (human)): 95%; residual activity (FER (human)): 51.8%; residual activity (BRSK1 (human)): 32.4%; residual activity (PRKD2 (human)): 102%; residual activity (PRKD3 (human)): 90.4%; residual activity (PKN2 (human)): 84.3%; residual activity (SGK3 (human)): 98.1%; residual activity (OXSR1 (human)): 89.1%; residual activity (PDGFRB (human)): 96.5%; residual activity (BMX (human)): 103%; residual activity (ACVR1 (human)): 98.6%; residual activity [1]: 108%; residual activity (YES1 (human)): 13.5%; residual activity (MAPK1 (human)): 101%; residual activity (DCLK2 (human)): 72%; residual activity (DYRK1B (human)): 93.6%; residual activity (AURKA (human)): 16.1%; residual activity (MET (human)): 92.2%; residual activity (INSR (human)): 91.6%; residual activity (EPHB1 (human)): 82.8%; residual activity (NEK3 (human)): 98.2%; residual activity (HIPK3 (human)): 107%; residual activity (MARK4 (human)): 51.5%; residual activity (ABL2 (human)): 56.8%; residual activity (MAP3K9 (human)): 74.6%; residual activity (CDK9 CCNK (human)): 96.9%; residual activity (SIK2 (human)): 86.4%

Question: How did the residual activity (DMPK (human)) turn out when `CS(=O)(=O)CCNCc1ccc(-c2ccc3ncnc(Nc4ccc(OCc5cccc(F)c5)c(Cl)c4)c3c2)o1` was run?
Answer: 94.7%

Question: What about the residual activity (STK16 (human)) of the same compound?
Answer: 97.1%

Question: What about the residual activity (IKBKB (human)) of the same compound?
Answer: 81%

Question: What about the residual activity (NEK11 (human)) of the same compound?
Answer: 107%

Question: And the residual activity (CDK5 CDK5R1 p25 (human))?
Answer: 90.4%

Question: What about the residual activity (CLK1 (human)) of the same compound?
Answer: 107%

Question: And the residual activity (STK4 (human))?
Answer: 99.4%

Question: What about the residual activity (SRPK3 (human)) of the same compound?
Answer: 104%

Question: What about the residual activity (MAPK11 (human)) of the same compound?
Answer: 101%

Question: What about the residual activity (MYLK2 (human)) of the same compound?
Answer: 108%

Question: What about the residual activity (EPHA7 (human)) of the same compound?
Answer: 95.6%

Question: And the residual activity (CDK5 CDK5R1 p35 (human))?
Answer: 103%

Question: What about the residual activity (CSNK1G3 (human)) of the same compound?
Answer: 104%

Question: And the residual activity (ADRBK1 (human))?
Answer: 94.8%

Question: What about the residual activity (FER (human)) of the same compound?
Answer: 94.6%

Question: And the residual activity (BRSK1 (human))?
Answer: 98.6%

Question: What about the residual activity (PRKD2 (human)) of the same compound?
Answer: 86.4%

Question: And the residual activity (PRKD3 (human))?
Answer: 88.6%

Question: What about the residual activity (PKN2 (human)) of the same compound?
Answer: 92%

Question: And the residual activity (SGK3 (human))?
Answer: 102%

Question: What about the residual activity (OXSR1 (human)) of the same compound?
Answer: 105%

Question: And the residual activity (STK17A (human))?
Answer: 89.7%

Question: And the residual activity (PDGFRB (human))?
Answer: 92%

Question: And the residual activity (BMX (human))?
Answer: 105%

Question: What about the residual activity (ACVR1 (human)) of the same compound?
Answer: 106%

Question: What about the residual activity [1] of the same compound?
Answer: 94.5%

Question: And the residual activity (YES1 (human))?
Answer: 84.7%

Question: What about the residual activity (MAPK1 (human)) of the same compound?
Answer: 102%

Question: What about the residual activity (DCLK2 (human)) of the same compound?
Answer: 101%

Question: And the residual activity (DYRK1B (human))?
Answer: 93.1%

Question: And the residual activity (AURKA (human))?
Answer: 81.5%

Question: And the residual activity (MET (human))?
Answer: 84.1%

Question: And the residual activity (INSR (human))?
Answer: 105%

Question: What about the residual activity (EPHB1 (human)) of the same compound?
Answer: 104%

Question: And the residual activity (NEK3 (human))?
Answer: 99.6%

Question: What about the residual activity (HIPK3 (human)) of the same compound?
Answer: 99.1%

Question: And the residual activity (MARK4 (human))?
Answer: 104%

Question: What about the residual activity (ABL2 (human)) of the same compound?
Answer: 97.3%

Question: And the residual activity (MAP3K9 (human))?
Answer: 112%

Question: What about the residual activity (CDK9 CCNK (human)) of the same compound?
Answer: 103%

Question: And the residual activity (SIK2 (human))?
Answer: 101%

Question: Which residual activity (DMPK (human)) does the source give for `Fc1ccc(-c2nc3n(c2-c2ccncc2)CCS3)cc1` here?
Answer: 102%

Question: What about the residual activity (STK16 (human)) of the same compound?
Answer: 106%

Question: What about the residual activity (IKBKB (human)) of the same compound?
Answer: 105%

Question: What about the residual activity (NEK11 (human)) of the same compound?
Answer: 71.4%

Question: And the residual activity (EPHB3 (human))?
Answer: 96.1%

Question: And the residual activity (CDK5 CDK5R1 p25 (human))?
Answer: 98.2%

Question: And the residual activity (CLK1 (human))?
Answer: 103%

Question: What about the residual activity (SRPK3 (human)) of the same compound?
Answer: 98.5%

Question: What about the residual activity (MAPK11 (human)) of the same compound?
Answer: 97.2%

Question: What about the residual activity (MYLK2 (human)) of the same compound?
Answer: 101%

Question: And the residual activity (EPHA7 (human))?
Answer: 76.3%

Question: What about the residual activity (CDK5 CDK5R1 p35 (human)) of the same compound?
Answer: 97.8%

Question: And the residual activity (CSNK1G3 (human))?
Answer: 97.9%

Question: What about the residual activity (ADRBK1 (human)) of the same compound?
Answer: 102%

Question: And the residual activity (FER (human))?
Answer: 86.4%

Question: And the residual activity (BRSK1 (human))?
Answer: 93.9%

Question: What about the residual activity (PRKD2 (human)) of the same compound?
Answer: 94.7%

Question: What about the residual activity (PRKD3 (human)) of the same compound?
Answer: 88.2%

Question: What about the residual activity (PKN2 (human)) of the same compound?
Answer: 96.3%

Question: What about the residual activity (SGK3 (human)) of the same compound?
Answer: 95.8%

Question: And the residual activity (OXSR1 (human))?
Answer: 92.5%

Question: What about the residual activity (STK17A (human)) of the same compound?
Answer: 99.4%

Question: What about the residual activity (PDGFRB (human)) of the same compound?
Answer: 107%

Question: What about the residual activity (BMX (human)) of the same compound?
Answer: 104%

Question: And the residual activity (ACVR1 (human))?
Answer: 94.2%

Question: What about the residual activity [1] of the same compound?
Answer: 102%

Question: And the residual activity (YES1 (human))?
Answer: 99.4%

Question: And the residual activity (MAPK1 (human))?
Answer: 106%

Question: What about the residual activity (DCLK2 (human)) of the same compound?
Answer: 97.4%

Question: What about the residual activity (DYRK1B (human)) of the same compound?
Answer: 104%

Question: And the residual activity (AURKA (human))?
Answer: 92.1%

Question: What about the residual activity (MET (human)) of the same compound?
Answer: 92.7%

Question: What about the residual activity (INSR (human)) of the same compound?
Answer: 91.2%

Question: What about the residual activity (EPHB1 (human)) of the same compound?
Answer: 106%

Question: And the residual activity (NEK3 (human))?
Answer: 96.9%

Question: What about the residual activity (HIPK3 (human)) of the same compound?
Answer: 109%

Question: And the residual activity (MARK4 (human))?
Answer: 106%

Question: What about the residual activity (ABL2 (human)) of the same compound?
Answer: 91%

Question: And the residual activity (MAP3K9 (human))?
Answer: 83.6%

Question: And the residual activity (CDK9 CCNK (human))?
Answer: 101%

Question: And the residual activity (SIK2 (human))?
Answer: 108%

Question: Which results are given for `COc1ccc(Cl)cc1NC(=O)Nc1cc(C)nc2ccccc12`?
Answer: residual activity (DMPK (human)): 103%; residual activity (STK16 (human)): 105%; residual activity (IKBKB (human)): 94.3%; residual activity (NEK11 (human)): 94.6%; residual activity (CDK5 CDK5R1 p25 (human)): 105%; residual activity (CLK1 (human)): 97.6%; residual activity (STK4 (human)): 98.7%; residual activity (SRPK3 (human)): 104%; residual activity (MAPK11 (human)): 92%; residual activity (MYLK2 (human)): 99.3%; residual activity (EPHA7 (human)): 99.7%; residual activity (CDK5 CDK5R1 p35 (human)): 102%; residual activity (CSNK1G3 (human)): 95.7%; residual activity (ADRBK1 (human)): 100%; residual activity (FER (human)): 92.4%; residual activity (BRSK1 (human)): 92.8%; residual activity (PRKD2 (human)): 99.8%; residual activity (PRKD3 (human)): 97.1%; residual activity (PKN2 (human)): 89.7%; residual activity (SGK3 (human)): 108%; residual activity (OXSR1 (human)): 101%; residual activity (STK17A (human)): 98.1%; residual activity (PDGFRB (human)): 105%; residual activity (BMX (human)): 101%; residual activity (ACVR1 (human)): 76.2%; residual activity [1]: 101%; residual activity (YES1 (human)): 90.1%; residual activity (MAPK1 (human)): 90.4%; residual activity (DCLK2 (human)): 96.5%; residual activity (DYRK1B (human)): 99.7%; residual activity (AURKA (human)): 93.4%; residual activity (MET (human)): 96.6%; residual activity (INSR (human)): 93.2%; residual activity (EPHB1 (human)): 102%; residual activity (NEK3 (human)): 114%; residual activity (HIPK3 (human)): 99.1%; residual activity (MARK4 (human)): 79.7%; residual activity (ABL2 (human)): 91.2%; residual activity (MAP3K9 (human)): 98.6%; residual activity (CDK9 CCNK (human)): 95.9%; residual activity (SIK2 (human)): 87.8%
